Data set [1] has as its system alpha 2 detla sub unit derived from porcine brain tissue. The following applies: radio ligand binding, compound without stereochemistry, value from U.S. Pat. No. 6,103,932; cited from earlier work.
The nature of data set [2]: water solubility (precipitation of free amino acid at pH 7). The format is physicochemical. Conditions: compared to the other gabapentin analogues. On the procedure: The process for the preparation of the cis and trans isomer of 4-t-butylgabapentin has been achieved, as outlined in Fig. I. 4-t-Butyl-cyclohexanone (I) was treated with ethylcyano acetate and ammonia in methanol to yield ammonium salt of dicyanoimide (2). Hydrolysis of (2) with hot sulfuric acid afforded the diacid (3) which was converted to the anhydride (4). (4) treated with aqueous ammonia to give the mono-amide (5) as a mixture containing approximately equal proportions of stereoisomers. Reaction of (5) with sodium hypobromite solution led to the formation of lactam (6) as a mixture of stereoisomers [proton NMR (7) and its isomer with NCH2 axial in the ratio of 3:2] from which one of the isomer could be crystallized out in pure form from methanol-hexane, mp 176-7° C. and its structure identified as (7) by NMR and single crystal X-ray analysis (Hydrolysis of lactam (6) with hot concentrated HCl gave a mixture of isomers of 4-t-butyl gabapentin hydrochloride (8). Crystallization of (8) from water afforded in pure form, mp 146-147° C., the isomer hemihydrate (9) with aminomethyl group in the anxial position. […]

SMILES strings stand for the structures. pIC50: −log10 of the molar value.

The term melting point denotes the temperature, or range, at which the solid turns liquid. By pIC50 is commonly meant −log10 of the IC50, conventionally taken in molar units.

Take `CC(C)(C)C1CCC(CN)(CC(=O)O)CC1` (stereo not shown) [4-t-butyl gabapentin]: the melting point was 176 to 180 °C. For the same compound, the pIC50 in data set [1] is 3.70.
`CC(C)(C)C1CCC(CN)(CC(=O)O)CC1` (stereo not shown) [Compound 10, 4-t-butylgabapentin] returned a melting point of 182 to 183 °C. Further, the water solubility result in data set [2] is reported as “much poorer water solubility”.

Source of the values: patent US7632864B2, “Gabapentin analogues and process thereof” (Hikal Ltd., priority 2005, dated 2009).
